Measured values: the NIST ThermoML archive (doi:10.1016/j.jct.2008.01.002)
± gives the expanded uncertainty stated by the source.

Assays:
[1] = refractive index (Na D-line) (dimensionless); conditions: 298.15 K; 101.33 kPa; Liquid; Standard Abbe refractometry
[2] = Liquid; for mass density: 298.15 K, 101.33 kPa; for Normal boiling temperature: Closed cell (Static) method

CCCO [propan-1-ol]
refractive index [1]: 1.3836 ± 0.0005
mass density [2]: 799.62 ± 0.79 kg/m3
Normal boiling temperature [2]: 96.60 ± 0.2 °C

CC(C)O [propan-2-ol]
refractive index [1]: 1.3754 ± 0.0005
mass density ([2]; Vibrating tube method): 782.69 ± 0.12 kg/m3
Normal boiling temperature [2]: 82.10 ± 0.2 °C

CCCOCCC [dipropyl ether]
refractive index [1]: 1.3784 ± 0.0005
mass density [2]: 741.81 ± 0.56 kg/m3
Normal boiling temperature [2]: 90.01 ± 0.2 °C

O [water]
refractive index [1]: 1.3332 ± 0.0005
Normal boiling temperature [2]: 100.00 ± 0.2 °C

CC(C)OC(C)C [diisopropyl ether]
refractive index [1]: 1.3652 ± 0.0005
mass density [2]: 718.32 ± 0.96 kg/m3
Normal boiling temperature [2]: 68.2 ± 0.2 °C
